Reference: patent US20250197799A1, “CELLS DERIVED FROM POLYPEDILUM VANDERPLANKI AND ODOR SENSOR EQUIPPED THEREWITH” (University of Maryland, College Park, priority 2022, published 2025)

Columns and labels:
[1] = tested on: GCaMP6f stable expression cell line; experiment: Functionality of GCaMP6f with ionomycin; assay type: cell-based, Polypedilum vanderplanki; conditions: ionomycin final concentration 1 μM, DMSO 1%; DMSO negative control showed no increase
Experimental: 3.2 The functionality of GCaMP6f. The functionality of GCaMP6f in the resulting cell lines was evaluated using Ionomycin (Ionomycin; Fujifilm Wako Pure Chemical) to increase the intracellular concentration of calcium ions to provide functional confirmation of exogenous proteins in the GCaMP6f stable-expressing cell line. Ionomycin was dissolved in dimethyl sulfoxide (DMSO; Fujifilm Wako Pure Chemical Industries, Ltd.), adjusted to a final DMSO concentration of 1% and an ionomycin final concentration of 1 μM in IP1-41 medium, and added to the cell solution. As a negative control, DMSO was adjusted to a final concentration of 1% in IP 1-41 medium and added to the cell solution. Bright-field images and fluorescence images (ex: 470/40 nm; em: 525/50 nm) of the cells before and after solution addition were taken (all-in-one fluorescence microscope BZ-X710, Keyence). […] Therefore, it was confirmed that the expressed GCaMP6f functioned in the obtained stable expression cell line. For statistical analysis of fluorescence intensity, one-way ANOVA was performed using Prism8 (GraphPad), followed by Tukey's multiple comparison test as a post-hoc test, […]

Orco-Or47a [2] = target: T1, Orco-Or47a (Drosophila melanogaster, UniProt P81921+Q9VNB5); experiment: Exogenous membrane protein function before drying and after drying-rehydration, Orco-Or47a stable expression cell line; assay type: cell-based; set-up: remnant residues; expressed in transfected cells; host or cells: Pv11 cells (Polypedilum vanderplanki), CRIS-PITCh knock-in at the Pv.00443 locus downstream of the 121 promoter, Zeocin selection and single-cell sorting; conditions: before drying
T1 sequence (Q9VNB5 1-486): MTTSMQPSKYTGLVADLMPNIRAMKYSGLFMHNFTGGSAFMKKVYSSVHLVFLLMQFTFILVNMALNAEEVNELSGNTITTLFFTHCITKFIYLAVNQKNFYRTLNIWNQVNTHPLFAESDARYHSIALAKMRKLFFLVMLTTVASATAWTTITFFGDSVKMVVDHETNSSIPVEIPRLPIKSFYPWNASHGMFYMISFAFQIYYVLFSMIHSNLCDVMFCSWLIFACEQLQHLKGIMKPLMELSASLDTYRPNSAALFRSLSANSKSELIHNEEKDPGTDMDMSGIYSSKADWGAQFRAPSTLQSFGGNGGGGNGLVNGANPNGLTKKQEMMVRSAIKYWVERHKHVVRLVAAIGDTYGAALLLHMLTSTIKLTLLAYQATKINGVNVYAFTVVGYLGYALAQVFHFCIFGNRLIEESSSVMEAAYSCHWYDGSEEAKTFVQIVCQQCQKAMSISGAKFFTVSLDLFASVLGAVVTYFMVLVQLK
T1 sequence (P81921 1-385): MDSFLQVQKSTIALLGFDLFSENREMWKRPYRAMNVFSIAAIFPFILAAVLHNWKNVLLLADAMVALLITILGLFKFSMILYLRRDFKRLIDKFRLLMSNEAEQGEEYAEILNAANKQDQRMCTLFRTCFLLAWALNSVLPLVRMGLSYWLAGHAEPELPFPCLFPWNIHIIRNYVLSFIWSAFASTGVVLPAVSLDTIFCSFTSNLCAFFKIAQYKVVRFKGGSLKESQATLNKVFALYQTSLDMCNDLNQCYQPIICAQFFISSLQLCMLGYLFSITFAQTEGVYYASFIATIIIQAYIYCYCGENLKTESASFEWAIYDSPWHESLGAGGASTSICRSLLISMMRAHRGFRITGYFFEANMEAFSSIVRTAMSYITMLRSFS
Experimental: To assess the drought tolerance of the cell lines, the cells were dried according to the following protocol. 4×10^7 Pv11-GCaMP6f stable expression cell lines were centrifuged at 700 g for 3 minutes and the supernatant removed. The precipitated cells were suspended in a 600 mM trehalose mix of 600 mM trehalose and IPL-41 medium at a ratio of 9:1, transferred to a 2 ml flask, and incubated at 25° C. for 48 hours. After 48 hours, the obtained cells were centrifuged at 700 g for 3 minutes and the supernatant was removed. The sedimented cells were suspended in 400 μl of 600 mM trebalose mix, and 40 μl were dropped onto a 35 mm dish. The 35 mm dish was dried for 10 days under conditions of 25° C. and humidity of 10% or less.
6. Assessment of exogenous membrane protein function after drying-rehydration. Using the Orco stable expression cell line and Orco-Or47a stable expression cell line, in order to assess the function of exogenous membrane proteins before drying and after 1 hour of rehydration after drying, fluorescence intensity generated in response to stimulation with VUAA1 (Orco agonist) or pentyl acetate (ligand of Or47a) was measured in the same manner as in 3.2 above.
The fluorescence intensity was digitized from the photograph, and ΔF/F was calculated according to the following formula:
Where the summation Σi=1^n is over the n cells in the image, Fi,after means the fluorescence intensity of the cell i after adding the ligand solution, and Fi,0 means the fluorescence intensity of the cell i before adding the ligand solution.
Specifically, a fluorescence image was taken under the condition in which the excitation wavelength/fluorescence wavelength was 488 nm/525 nm. In the fluorescence intensity quantification, the cells were identified in the photographed image, and the fluorescence intensity (F) was measured for each time. The initial values of fluorescence intensity (F0) were subtracted from the measured fluorescence intensity at each time to obtain the amount of change in fluorescence (ΔF), which was then normalized by dividing by the initial value of fluorescence intensity (F0) to obtain (Δ F/F0). A number of cells n were selected from the captured image, ΔF/F0 were produced for each, and the average value (including standard deviation, SD) of the results was graphed. For example, 25 cells were selected from the captured image, ΔF/F0 for each were produced, and the averaged results (including SD) were graphed. […] The Orco-Or47a stable expression cell line before drying responded to the Orco agonist (VUAA1) and the specific ligand of Or47a, pentyl acetate.

Orco-Or47a [3] = experiment: Response after rehydration with cycloheximide treatment, Orco-Or47a stable expression cell line; assay type: cell-based, Drosophila melanogaster
Experimental: 7. Confirmation that exogenous membrane protein responses in Orco-Or47a stable expression cell lines immediately after rehydration are not due to de novo protein synthesis. To confirm that the membrane protein response of the Orco-Or47a stable expression cell line immediately after rehydration was not due to de novo protein synthesis, cells were treated with cycloheximide (CHX, a protein synthesis inhibitor).
A previous study reported that 0.35 mM of cycloheximide is able to inhibit protein production in Pv11 cells. Therefore, also in this experiment, cycloheximide was dissolved in IPL-41 medium so that the cycloheximide concentration was 0.35 mM. An IPL-41 medium with 0.01 mM, 0.07 mM and 0.7 mM cycloheximide was also prepared. […] One hour after rehydration and 24 hours after rehydration, the same operation as in 3.6 above was performed, and the fluorescence intensity was measured and analyzed. […] FIG. 7A and FIG. 7B are graphs showing changes in fluorescence intensity of the Orco-Or47a stable expression cell line response to VUAA1 and pentyl acetate, respectively, one hour after drying and rehydration. FIGS. 7C and 7D are graphs showing changes in fluorescence intensity, respectively, in response to VUAA1 and pentyl acetate of Orco-Or47a stable expression cell lines 24 hours after drying and rehydration.

Pv11 cells = conditions: previous study; cited from earlier work

SMILES: C[C@H](CCC(=O)O)C[C@H](C)C[C@H](C)C(=O)/C=C(\O)[C@H](C)C[C@H](C)C/C=C/[C@@H](C)[C@@H](O)[C@@H](C)[C@@H](O)C[C@@H]1CC[C@@](C)([C@H]2CC[C@@](C)([C@@H](C)O)O2)O1 [ionomycin, Ionomycin]
- fluorescence after addition [1]: stronger fluorescence than before the addition

SMILES: CC(=O)c1ccccc1 [acetophenone]
- response as change in fluorescence intensity (ΔF/F0) (Orco-Or47a [2]): did not react

SMILES: C[C@@H]1C[C@@H]([C@H](O)CC2CC(=O)NC(=O)C2)C(=O)[C@@H](C)C1 [cycloheximide]
- effect of cycloheximide on function of the exogenous membrane protein (Orco-Or47a [3]; 1 hour after rehydration, cycloheximide 0.01, 0.07, 0.35, 0.7 mM, response to VUAA1 or pentyl acetate): no significant difference
- effect of CHX treatment on response (Orco-Or47a [3]; 24 hours after rehydration, response to VUAA1 and pentyl acetate): less responsive
- concentration able to inhibit protein production (Pv11 cells): 0.35 mM
